Measurements taken from US12527800B2, “Therapeutic agent for Parkinson's disease” (KYOWA KIRIN CO., LTD., priority 2019, dated 2026).

System: patients of Parkinson's disease experiencing motor fluctuations
Assay: Pooled analysis of phase 2b and phase 3 clinical studies of istradefylline combined with L-DOPA: change from baseline to week 12 and CGI-I at week 12
Type: in vivo, human
Details: for Mean daily OFF time, change from baseline to week 12: 12 weeks; for Mean daily OFF time, change from baseline to week 12 / Mean daily ON time with dyskinesia, change from baseline to week 12 / Mean daily ON time with non-troublesome dyskinesia, change from baseline to week 12 / Mean daily ON time with troublesome dyskinesia, change from baseline to week 12 / Mean daily ON time without dyskinesia, change from baseline to week 12 / Mean daily ON time without troublesome dyskinesia, change from baseline to week 12 / Mean daily percentage of OFF time, change from baseline to week 12 / Mean daily percentage of ON time with dyskinesia, change from baseline to week 12 / Mean daily percentage of ON time with non-troublesome dyskinesia, change from baseline to week 12 / Mean daily percentage of ON time with troublesome dyskinesia, change from baseline to week 12 / Mean daily percentage of ON time without dyskinesia, change from baseline to week 12 / Mean daily percentage of ON time without troublesome dyskinesia, change from baseline to week 12 / Total UPDRS Parts I-III at ON state, change from baseline to week 12 / UPDRS Part I score, change from baseline to week 12 / UPDRS Part II score OFF state, change from baseline to week 12 / UPDRS Part II score ON state, change from baseline to week 12 / UPDRS Part III score at ON state, change from baseline to week 12 / UPDRS Part IV score, change from baseline to week 12: mean ± SD; for CGI-I Minimally improved, % of patients / CGI-I Minimally improved, number of patients / CGI-I Minimally worse, % of patients / CGI-I Minimally worse, number of patients / CGI-I Much improved, % of patients / CGI-I Much improved, number of patients / CGI-I Much worse, % of patients / CGI-I Much worse, number of patients / CGI-I No change, % of patients / CGI-I No change, number of patients / CGI-I Very much improved, % of patients / CGI-I Very much improved, number of patients / CGI-I Very much worse, % of patients / CGI-I Very much worse, number of patients: week 12
Experimental: A pooled analysis was performed for two clinical studies of istradefylline combined with L-DOPA previously conducted in Japan. Both studies were performed according to the principles of the Declaration of Helsinki and were identically designed for 12-week, multicenter, randomized, double-blind, placebo-controlled, and parallel-group studies approved by the relevant institutional review boards of each center [(i) Mizuno Y, Kondo T. Adenosine A2A receptor antagonist istradefylline reduces daily OFF time in Parkinson's disease. Mov Disord 2013; 28: 1138-41, and (ii) Mizuno Y, Hasegawa K, Kondo T, et al. Clinical efficacy of istradefylline (KW-6002) in Parkinson's disease: a randomized, controlled study. Mov Disord 2010; 25(10): 1437-43)]. Both studies were registered in ClinicalTrials.gov (NCT00455507 [phase 2b] and NCT00955526 [phase 3]). Both studies enrolled patients of Parkinson's disease who were experiencing motor fluctuations.
Key inclusion criteria included age 20 years, stages 2-4 (OFF state) based on the Modified Hoehn and Yahr (mH&Y) scale, stable treatment regimen of antiparkinsonian drugs, and motor fluctuations with an OFF time of 2 hours or longer per day. Key exclusion criteria included history of surgical operation for Parkinson's disease, cognitive impairment, and pregnancy. The study protocols were approved by the institutional review boards at all participating study sites, and written informed consent was obtained from all patients prior to participation.
In both studies, eligible subjects were randomized to one of three groups: 12-week istradefylline 20 mg/day group, 12-week istradefylline 40 mg/day group, and 12-week placebo group. The subjects attended site visits at weeks 2, 4, 8, and 12 after randomization, and submitted patient diaries covering the 7-day period prior to each visit. The full analysis set included subjects who received at least one dose of study drug and completed at least one set of patient diaries.
The primary outcomes were changes in OFF time (hours/day) from baseline to 12 weeks obtained from the patient diaries, which were compared between the placebo group and the istradefylline group. Other outcomes included changes (%) in daily OFF time, changes in ON time without troublesome dyskinesia (“Good” ON time) (Hauser RA, Deckers F, Lehert P. Parkinson's disease home diary: further validation and implications for clinical trials. Mov Disord 2004; 19(12): 1409-13), (which was the summation of ON time without dyskinesia and ON time with non-troublesome dyskinesia), UPDRS parts I-IV score, and changes in Clinical Global Impressions-Improvement (CGI-I) score from baseline to 12 weeks. The varying from baseline values, and the treatment effect were determined as a difference in mean change between the placebo group and the istradefylline group during the follow up period.
Baseline data were summarized for all and respective treatment groups (placebo and istradefylline: 20 mg or 40 mg). Continuous variables were expressed as mean and standard deviation (SD), whereas categorical variables were expressed as proportions. The following statistical analyses were performed for patients without any missing data (listwise deletion or complete case analysis).

[1] = 20 mg/day, listed as Istradefylline
[2] = 40 mg/day, listed as Istradefylline

## CCn1c(=O)c2c(nc(/C=C/c3ccc(OC)c(OC)c3)n2C)n(CC)c1=O [istradefylline]
20 mg/day, N = 235
  Mean daily OFF time, change from baseline to week 12: significant reductions
20 mg/day, N = 235, listed as Istradefylline
  Mean daily OFF time, change from baseline to week 12: -1.23 ± 1.97 h
20 mg/day
  Mean daily ON time with dyskinesia, change from baseline to week 12: 0.19 ± 1.53 h
  Mean daily ON time with non-troublesome dyskinesia, change from baseline to week 12: significantly increased
  Mean daily ON time with troublesome dyskinesia, change from baseline to week 12: 0.03 ± 1.33 h
  Mean daily ON time without dyskinesia, change from baseline to week 12: significantly increased
  Mean daily ON time without troublesome dyskinesia, change from baseline to week 12: significantly increased
  Mean daily percentage of OFF time, change from baseline to week 12: significant reductions
  Mean daily percentage of ON time with dyskinesia, change from baseline to week 12: 1.32 ± 9.36%
  Mean daily percentage of ON time with non-troublesome dyskinesia, change from baseline to week 12: significantly increased
  Mean daily percentage of ON time with troublesome dyskinesia, change from baseline to week 12: 0.15 ± 8.12%
  Mean daily percentage of ON time without dyskinesia, change from baseline to week 12: significantly increased
  Mean daily percentage of ON time without troublesome dyskinesia, change from baseline to week 12: significantly increased
  Total UPDRS Parts I-III at ON state, change from baseline to week 12: significant reductions
  UPDRS Part I score, change from baseline to week 12: −0.2 ± 0.9
  UPDRS Part II score OFF state, change from baseline to week 12: −1.8 ± 4.1
  UPDRS Part II score ON state, change from baseline to week 12: −0.5 ± 2.3
  UPDRS Part III score at ON state, change from baseline to week 12: significant reductions
  UPDRS Part IV score, change from baseline to week 12: −0.1 ± 1.6
  CGI-I Minimally improved, % of patients: (36.2) %
  CGI-I Minimally improved, number of patients: 85 number of patients
  CGI-I Minimally worse, % of patients: (5.1) %
  CGI-I Minimally worse, number of patients: 12 number of patients
  CGI-I Much improved, % of patients: (18.3) %
  CGI-I Much improved, number of patients: 43 number of patients
  CGI-I Much worse, % of patients: (1.3) %
  CGI-I Much worse, number of patients: 3 number of patients
  CGI-I No change, % of patients: (36.2) %
  CGI-I No change, number of patients: 85 number of patients
  CGI-I Very much improved, % of patients: (2.6) %
  CGI-I Very much improved, number of patients: 6 number of patients
  CGI-I Very much worse, % of patients: (0.4) %
  CGI-I Very much worse, number of patients: 1 number of patients
[1]
  Mean daily ON time with non-troublesome dyskinesia, change from baseline to week 12: 0.16 ± 1.56 h
  Mean daily ON time without dyskinesia, change from baseline to week 12: 1.03 ± 2.20 h
  Mean daily ON time without troublesome dyskinesia, change from baseline to week 12: 1.19 ± 2.44 h
  Mean daily percentage of OFF time, change from baseline to week 12: −7.62 ± 12.62%
  Mean daily percentage of ON time with non-troublesome dyskinesia, change from baseline to week 12: 1.17 ± 9.54%
  Mean daily percentage of ON time without dyskinesia, change from baseline to week 12: 6.28 ± 13.68%
  Mean daily percentage of ON time without troublesome dyskinesia, change from baseline to week 12: 7.45 ± 14.95%
  Total UPDRS Parts I-III at ON state, change from baseline to week 12: −5.8 ± 8.6
  UPDRS Part III score at ON state, change from baseline to week 12: −5.1 ± 7.2
40 mg/day, N = 247
  Mean daily OFF time, change from baseline to week 12: significant reductions
40 mg/day, N = 247, listed as Istradefylline
  Mean daily OFF time, change from baseline to week 12: -1.27 ± 2.42 h
40 mg/day
  Mean daily ON time with dyskinesia, change from baseline to week 12: 0.20 ± 1.93 h
  Mean daily ON time with non-troublesome dyskinesia, change from baseline to week 12: significantly increased
  Mean daily ON time with troublesome dyskinesia, change from baseline to week 12: 0.06 ± 1.13 h
  Mean daily ON time without dyskinesia, change from baseline to week 12: significantly increased
  Mean daily ON time without troublesome dyskinesia, change from baseline to week 12: significantly increased
  Mean daily percentage of OFF time, change from baseline to week 12: significant reductions
  Mean daily percentage of ON time with dyskinesia, change from baseline to week 12: 1.28 ± 11.40%
  Mean daily percentage of ON time with non-troublesome dyskinesia, change from baseline to week 12: significantly increased
  Mean daily percentage of ON time with troublesome dyskinesia, change from baseline to week 12: 0.36 ± 6.44%
  Mean daily percentage of ON time without dyskinesia, change from baseline to week 12: significantly increased
  Mean daily percentage of ON time without troublesome dyskinesia, change from baseline to week 12: significantly increased
  Total UPDRS Parts I-III at ON state, change from baseline to week 12: significant reductions
  UPDRS Part I score, change from baseline to week 12: −0.1 ± 1.0
  UPDRS Part II score OFF state, change from baseline to week 12: significant reductions
  UPDRS Part II score ON state, change from baseline to week 12: −0.7 ± 2.2
  UPDRS Part III score at ON state, change from baseline to week 12: significant reductions
  UPDRS Part IV score, change from baseline to week 12: significant reductions
  CGI-I Minimally improved, % of patients: (32.5) %
  CGI-I Minimally improved, number of patients: 80 number of patients
  CGI-I Minimally worse, % of patients: (6.5) %
  CGI-I Minimally worse, number of patients: 16 number of patients
  CGI-I Much improved, % of patients: (21.5) %
  CGI-I Much improved, number of patients: 53 number of patients
  CGI-I Much worse, % of patients: (0.8) %
  CGI-I Much worse, number of patients: 2 number of patients
  CGI-I No change, % of patients: (34.1) %
  CGI-I No change, number of patients: 84 number of patients
  CGI-I Very much improved, % of patients: (4.5) %
  CGI-I Very much improved, number of patients: 11 number of patients
  CGI-I Very much worse, % of patients: (0.0) %
  CGI-I Very much worse, number of patients: 0 number of patients
[2]
  Mean daily ON time with non-troublesome dyskinesia, change from baseline to week 12: 0.15 ± 1.36 h
  Mean daily ON time without dyskinesia, change from baseline to week 12: 0.99 ± 2.86 h
  Mean daily ON time without troublesome dyskinesia, change from baseline to week 12: 1.13 ± 2.65 h
  Mean daily percentage of OFF time, change from baseline to week 12: −7.76 ± 15.02%
  Mean daily percentage of ON time with non-troublesome dyskinesia, change from baseline to week 12: 0.92 ± 8.26%
  Mean daily percentage of ON time without dyskinesia, change from baseline to week 12: 6.46 ± 17.10%
  Mean daily percentage of ON time without troublesome dyskinesia, change from baseline to week 12: 7.39 ± 15.73%
  Total UPDRS Parts I-III at ON state, change from baseline to week 12: −6.3 ± 8.1
  UPDRS Part II score OFF state, change from baseline to week 12: −2.0 ± 3.8
  UPDRS Part III score at ON state, change from baseline to week 12: −5.5 ± 6.6
  UPDRS Part IV score, change from baseline to week 12: −0.5 ± 1.6
